Drawing on PMC8555546, “Conductance stability and Na+ interaction with Shab K+ channels under low K+ conditions” (Channels, 2021), this text covers Kd for 1 compound.

Each structure is given as a SMILES string. pKd: −log10 of the molar value.

For the test, the target named is T1, Shab K+ channel (dShab 11) (Drosophila melanogaster, UniProt P17970).
T1 construct: Shab cDNA (dShab 11) by recombinant baculovirus in Sf9 insect cells; homotetramer
T1 sequence (P17970 1-1015): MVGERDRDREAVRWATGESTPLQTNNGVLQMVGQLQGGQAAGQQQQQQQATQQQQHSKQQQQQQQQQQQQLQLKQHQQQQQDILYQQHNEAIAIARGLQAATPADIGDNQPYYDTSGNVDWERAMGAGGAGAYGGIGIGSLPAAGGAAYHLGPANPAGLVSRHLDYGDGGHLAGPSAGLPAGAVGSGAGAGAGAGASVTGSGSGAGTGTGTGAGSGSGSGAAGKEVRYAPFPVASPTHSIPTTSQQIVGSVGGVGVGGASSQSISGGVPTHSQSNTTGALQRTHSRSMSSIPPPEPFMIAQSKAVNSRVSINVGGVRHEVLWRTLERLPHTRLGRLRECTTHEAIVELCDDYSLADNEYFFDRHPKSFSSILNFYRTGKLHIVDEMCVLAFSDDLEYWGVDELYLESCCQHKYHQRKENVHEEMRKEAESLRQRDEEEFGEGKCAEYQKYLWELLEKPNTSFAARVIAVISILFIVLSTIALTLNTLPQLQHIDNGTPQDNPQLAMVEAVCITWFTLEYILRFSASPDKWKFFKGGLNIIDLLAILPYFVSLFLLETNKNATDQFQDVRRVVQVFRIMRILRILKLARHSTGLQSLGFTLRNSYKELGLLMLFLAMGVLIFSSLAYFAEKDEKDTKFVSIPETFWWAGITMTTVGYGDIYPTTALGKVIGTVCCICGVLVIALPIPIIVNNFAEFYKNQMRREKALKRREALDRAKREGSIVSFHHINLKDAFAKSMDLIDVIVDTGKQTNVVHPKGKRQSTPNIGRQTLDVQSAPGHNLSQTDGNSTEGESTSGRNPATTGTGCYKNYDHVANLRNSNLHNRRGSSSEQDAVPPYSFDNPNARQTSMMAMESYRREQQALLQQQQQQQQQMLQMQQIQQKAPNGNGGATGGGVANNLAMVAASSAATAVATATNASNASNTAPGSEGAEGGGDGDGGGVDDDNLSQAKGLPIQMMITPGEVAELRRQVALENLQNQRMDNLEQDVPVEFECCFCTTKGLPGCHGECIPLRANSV
Briefly: whole-cell patch clamp, block of K+ current, Michaelis-Menten fit. The test is classed as cell-based.

As to `CC[N+](CC)(CC)CC` [TEA], the pKd (commonly the negative decadic logarithm of the Kd, by convention in mol/L) was 1.97.
